What all share (assay): competitive TR-FRET assay, BET-BD with acetylated peptide ligand
What all share (type): binding
In general terms: TR-FRET usually uses a lanthanide donor and a delayed reading to cut background.

Assay [1] concerns the target BRD2-BD1 (Homo sapiens (Human), UniProt P25440). Particulars: BRD2-BD1; Table 11 additional modifications; read-out: 2.1 EC50. As to the method:
(§1) Inhibitor potency was determined using a competitive TR-FRET assay as detailed herein, measuring interaction of the respective BET-BD with an acetylated peptide ligand (Table 2).

Assay [2] addresses BRD2-BD2 (Homo sapiens (Human), UniProt P25440). To be noted: for EC50: BRD2-BD2, Table 11 additional modifications, read-out: 2.2 EC50; for 2.1/2.2: ratio of BRD2-BD1 EC50 to BRD2-BD2 EC50 (selectivity). As to the method:
as §1

Assay [3] addresses BRD4-BD1 (Homo sapiens (Human), UniProt O60885). Particulars: BRD4-BD1; Table 11 additional modifications; read-out: 4.1 EC50. As to the method:
as §1

In assay [4] the target is BRDT (Homo sapiens, UniProt Q58F21). Particulars: BRDT; Table 11 additional modifications; read-out: BRDT EC50. The protocol: as §1
In assay [5] the target is BRD3-BD1 (Homo sapiens (Human), UniProt Q15059). Particulars: BRD3-BD1; Table 11 additional modifications; read-out: 3.1 EC50. As to the method:
as §1

Chain of BRD3-BD1 (Q15059 34-140): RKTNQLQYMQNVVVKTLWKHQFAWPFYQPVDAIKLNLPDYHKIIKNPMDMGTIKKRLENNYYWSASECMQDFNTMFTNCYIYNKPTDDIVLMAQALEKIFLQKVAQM
Chain of BRD2-BD1 (P25440 74-180): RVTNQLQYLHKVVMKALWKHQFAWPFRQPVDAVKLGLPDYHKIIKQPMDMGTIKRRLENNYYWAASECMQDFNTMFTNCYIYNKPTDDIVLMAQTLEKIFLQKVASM
Chain of BRD2-BD2 (P25440 344-453): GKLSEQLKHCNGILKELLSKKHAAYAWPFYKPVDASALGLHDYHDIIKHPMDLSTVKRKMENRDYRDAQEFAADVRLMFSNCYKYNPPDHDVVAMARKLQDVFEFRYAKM

Regarding `CC(=O)Nc1cccc(-c2ccc3c(c2)[C@H](Nc2ccc(CN)cc2)C[C@H](C)N3C(C)=O)c1` [compound 26], the EC50 was 470 nM in assay [1]; 23 nM in assay [2]; 1100 nM in assay [3]; over 36000 nM in assay [4]; 78 nM in assay [5]. Besides, the 2.1/2.2 in assay [2] is listed as 20.
Take `CC(=O)Nc1cccc(-c2ccc3c(c2)[C@H](Nc2ccc(-c4nnn(C)n4)cc2)C[C@H](C)N3C(C)=O)c1` [compound 27]: the concentration giving a half-maximal response (EC50) in assay [1] stood at 220 nM; in assay [2], 35 nM; in assay [3], 2100 nM; in assay [4], 660 nM; in assay [5], 310 nM. Also, the 2.1/2.2 in assay [2] is 6.3.
In the case of `CC(=O)Nc1cccc(-c2ccc3c(c2)[C@H](Nc2ccc(-c4nnnn4C)cc2)C[C@H](C)N3C(C)=O)c1` [compound 28], the EC50 was over 52000 nM in assay [1]; 10 nM in assay [2]; over 52000 nM in assay [3]; over 52000 nM in assay [4]; over 52000 nM in assay [5].
For `CC(=O)Nc1cccc(-c2ccc3c(c2)[C@H](Nc2ccc(C#N)cc2)C[C@H](C)N3C(C)=O)c1` [compound 29], the EC50 in assay [1] came out at 460 nM; in assay [2] it was 8 nM; in assay [3], 1200 nM; in assay [4], 300 nM; in assay [5], 260 nM. Also, the 2.1/2.2 in assay [2] came out at 58.
As to `CC(=O)Nc1cccc(-c2ccc3c(c2)[C@H](Nc2ccc(C(=O)CO)cc2)C[C@H](C)N3C(C)=O)c1` [compound 30], the EC50 in assay [1] was 2900 nM; in assay [2] it was 20 nM; in assay [3], over 70000 nM; in assay [4] it was 4800 nM; in assay [5], 9800 nM. Besides, the 2.1/2.2 in assay [2] is 145.
In the case of `CC(=O)Nc1cccc(-c2ccc3c(c2)[C@H](Nc2cccc4ncccc24)C[C@H](C)N3C(C)=O)c1` [compound 31], the EC50 in assay [1] is 880 nM; in assay [2] it was 20 nM; in assay [3], 590 nM; in assay [4], 1200 nM; in assay [5] it was 290 nM. For the same compound, in assay [2], the 2.1/2.2 came out at 44.
`CC(=O)Nc1cccc(-c2ccc3c(c2)[C@H](Nc2cccc4ccccc24)C[C@H](C)N3C(C)=O)c1` [compound 32]: the EC50 in assay [1], in assay [2], in assay [3], in assay [4] and in assay [5] was over 23000 nM in each case.
In the case of `CC(=O)Nc1cccc(-c2ccc3c(c2)[C@H](Nc2cccc4cccnc24)C[C@H](C)N3C(C)=O)c1` [compound 33], the EC50 in assay [1] was over 4900 nM; in assay [2], 10000 nM; in assay [3], over 4900 nM; in assay [4], over 4900 nM; in assay [5], over 4900 nM.
Consider `CC(=O)Nc1cccc(-c2ccc3c(c2)[C@H](Nc2ccc(-c4nnco4)cc2)C[C@H](C)N3C(C)=O)c1` [compound 34], for which the EC50 in assay [1] was 410 nM; in assay [2], 20 nM; in assay [3], 5100 nM; in assay [4] it was 890 nM; in assay [5] it was 510 nM. The 2.1/2.2 in assay [2] was 21.
Turning to `CC(=O)Nc1cccc(-c2ccc3c(c2)[C@H](Nc2ccc(-c4nnc(C)o4)cc2)C[C@H](C)N3C(C)=O)c1` [compound 35], the concentration for a half-maximal effect (EC50) turned out to be 80 nM in assay [1]; 12 nM in assay [2]; 2500 nM in assay [3]; 140 nM in assay [4]; 130 nM in assay [5]. The 2.1/2.2 in assay [2] was found to be 6.7.
Turning to `CC(=O)N1c2ccc(-c3cccc(NS(C)(=O)=O)c3)cc2[C@H](NC(=O)OC(C)C)C[C@@H]1C` [compound 93], the half-maximal effective concentration (EC50) in assay [1] worked out at 580 nM; in assay [2] it was 120 nM; in assay [3] it was 380 nM; in assay [4], 1200 nM; in assay [5], 150 nM. Besides, the 2.1/2.2 in assay [2] is reported as 4.6.
In the case of `CC(=O)N1c2ccc(-c3cccc(NC(=O)C4CC4)c3)cc2[C@H](NC(=O)OC(C)C)C[C@@H]1C` [compound 94], the EC50 in assay [1] was found to be 2000 nM; in assay [2], 170 nM; in assay [3], 1400 nM; in assay [4], 84000 nM; in assay [5], 430 nM. Besides, the 2.1/2.2 in assay [2] turned out to be 1.2.
Turning to `CC(=O)N1c2ccc(-c3cccc(NC(=O)c4ccc(C)cc4)c3)cc2[C@H](NC(=O)OC(C)C)C[C@@H]1C` [compound 95], the concentration giving a half-maximal response (EC50) in assay [1] is 3100 nM; in assay [2], 420 nM; in assay [3], 2000 nM; in assay [4], 510 nM; in assay [5], 380 nM. The 2.1/2.2 in assay [2] turned out to be 1.2.
In the case of `COC(=O)c1ccc(N[C@@H]2C[C@H](C)N(C(C)=O)c3ccc(-c4cccc(NCCC(C)C)c4)cc32)cc1` [compound 142], the EC50 in assay [1] came to 2500 nM; in assay [2], 230 nM; in assay [4], 8300 nM; in assay [5] it was 2500 nM. The 2.1/2.2 in assay [2] was determined as 52.
For `CCCCN(CCCC)c1cccc(-c2ccc3c(c2)[C@H](Nc2ccc(C(=O)OC)cc2)C[C@H](C)N3C(C)=O)c1` [compound 143], the EC50 worked out at 8000 nM in assay [1], 1100 nM in assay [2], 34000 nM in assay [4] and 11000 nM in assay [5]. In addition, in assay [2], the 2.1/2.2 amounted to 93.
For `COC(=O)c1ccc(N[C@@H]2C[C@H](C)N(C(C)=O)c3ccc(-c4ccnn4C)cc32)cc1` [compound 144], the EC50 was 3800 nM in assay [1], 290 nM in assay [2], 15000 nM in assay [4] and 3100 nM in assay [5]. The 2.1/2.2 in assay [2] was determined as 7.0.
Take `CC(=O)N1c2ccc(-c3ccnn3C)cc2[C@H](Nc2ccccc2OC(F)(F)F)C[C@@H]1C` [compound 145]: the 50% effective concentration (EC50) in assay [1] is 19000 nM; in assay [2] it was 390 nM; in assay [4], over 58000 nM; in assay [5], 21000 nM. Besides, in assay [2], the 2.1/2.2 is 5.0.
For the compound `CCCCN(CCCC)c1cccc(-c2ccc3c(c2)[C@H](Nc2ccccc2OC(F)(F)F)C[C@H](C)N3C(C)=O)c1` [compound 146], the EC50 in assay [1] was 78000 nM; in assay [2], 9600 nM; in assay [4], over 78000 nM; in assay [5], over 78000 nM. Besides, the 2.1/2.2 in assay [2] worked out at 22.
Turning to `COc1cccc(-c2ccc3c(c2)[C@H](Nc2ccc(Cl)cc2)C[C@H](C)N3C(C)=O)c1` [compound 147], the 50% effective concentration (EC50) is 7200 nM in assay [1], 1600 nM in assay [2], 17000 nM in assay [4] and 9400 nM in assay [5]. Moreover, in assay [2], the 2.1/2.2 came to 7.4.
`CC(=O)N1c2ccc(-c3cccc(N(CCC(C)C)CCC(C)C)c3)cc2[C@H](Nc2ccccc2OC(F)(F)F)C[C@@H]1C` [compound 148]: the EC50 is 90000 nM in assay [1], 34000 nM in assay [2], over 90000 nM in assay [4] and over 90000 nM in assay [5]. Moreover, in assay [2], the 2.1/2.2 turned out to be 16.
Turning to `CC(=O)N(C)c1cccc(-c2ccc3c(c2)[C@H](Nc2ccc(Cl)cc2)C[C@H](C)N3C(C)=O)c1` [compound 149], the EC50 worked out at 1300 nM in assay [1], 140 nM in assay [2], 3600 nM in assay [4] and 1000 nM in assay [5]. The 2.1/2.2 in assay [2] stood at 10.
For `CCCCCN(CCCCC)c1cccc(-c2ccc3c(c2)[C@H](Nc2ccccc2OC(F)(F)F)C[C@H](C)N3C(C)=O)c1` [compound 150], in that order: 72000 nM, 22000 nM, over 72000 nM, over 72000 nM and 13.
On the same counts, the results for `CC(=O)N1c2ccc(-c3cccc(NCC4CCOC4)c3)cc2[C@H](Nc2ccccc2OC(F)(F)F)C[C@@H]1C` (stereo partly shown) [compound 151] are 14000 nM, 670 nM, 26000 nM, 8300 nM and 49.
Turning to `CC(=O)N1c2ccc(-c3cccc(N(CC4CC4)CC4CC4)c3)cc2[C@H](Nc2ccccc2OC(F)(F)F)C[C@@H]1C` [compound 152], the EC50 in assay [1] is 79000 nM; in assay [2], 8400 nM; in assay [4] it was over 79000 nM; in assay [5], 78000 nM.
In the case of `CC(=O)N1c2ccc(-c3cccc(NCCC(F)(F)F)c3)cc2[C@H](Nc2ccccc2OC(F)(F)F)C[C@@H]1C` [compound 153], the EC50 was 90000 nM in assay [1], 1700 nM in assay [2], over 90000 nM in assay [4] and 39000 nM in assay [5]. Besides, in assay [2], the 2.1/2.2 is on record as 8.2.
For `CC(=O)N1c2ccc(-c3cccc(NC4CCCC4)c3)cc2[C@H](Nc2ccccc2OC(F)(F)F)C[C@@H]1C` [compound 154], in that order: 20000 nM, 1800 nM, over 84000 nM, 27000 nM and 4.6.
For `CCCN(CCC)c1cccc(-c2ccc3c(c2)[C@H](Nc2ccccc2OC(F)(F)F)C[C@H](C)N3C(C)=O)c1` [compound 155], in that order: 17000 nM, 5700 nM, over 84000 nM, 79000 nM and 2.6.
In the case of `COc1cc(F)ccc1N[C@@H]1C[C@H](C)N(C(C)=O)c2ccc(-c3cccc(CNCC(F)(F)F)c3)cc21` [compound 169], the EC50 in assay [1], in assay [3], in assay [4] and in assay [5] was over 30000 nM each time.

Broadly, the EC50 is the concentration needed to bring the measured effect to its halfway point.

The record behind these values is patent publication US11028051B2, “Tetrahydroquinoline-based bromodomain inhibitors” (St. Jude Children's Research Hospital, priority 2016, dated 2021).
